Columns and labels:
IR-EGFR = target: T1, IR-EGFR (Homo sapiens, UniProt P00533+P06213); assay: His-tagged chimaeric receptor phosphorylation in CHO cells; assay type: cell-based; conditions: 5 μM, 30 min
T1 construct: the cDNA encoding extracellular IR was fused to intracellular IGFR or EGFR; expressed in transfected cells; host or cells: CHO
Experimental: (A) Chemical structure of 4524-E7. (B) Effect of 4524-E7 and other 1,4-naphthoquinone derivatives on IR phosphorylation in CHO-IR cells. CHO-IR cells were cultured in 96-well plates and treated with 5 μM compounds for 15 min at 37 C. Cells were lysed, and IR phosphorylations were tested by ELISA. The IR phosphorylation activities of the tested compounds were expressed as a percentage of the vehicle. (C) 4524-E7 and 1,4-naphthoquinone derivates activate IR and its downstream signaling in CHO-IR cells. […] The cell lysates were analyzed by immunoblotting with various indicated antibodies. The phosphorylated IR was immunoprecipitated using PY20 and analyzed by immunoblotting with anti-IR13 antibody. […] The phosphorylation of each receptor was determined by Western blot using specific antibodies as indicated. (E) 4524-E7 activates IR through its ICD. Upper panel: Diagram of chimaeric receptors. Lower panel: His-tagged wild-type IR, IGFR-IR, IR-IGFR, and IR-EGFR constructs were transfected into CHO cells followed vehicle or 5 μM 4524-E7 treatment for 30 min. Then the cells were lysated and the transfected receptor fused to His tag were pulled down with Ni+ beads, followed by western blot against anti-p-Tyr and anti-His. The cell lysates were tested with anti-p-Akt and anti-Akt.
The cDNA encoding wild type IR was introduced into the pcDNA3.1/V5-His-TOPO vector. […]

FGFR1 = FGFR1 (Homo sapiens, UniProt P11362); assay: RTK kinase profile screen assay; assay type: biochemical; conditions: 10 μM
Chain of FGFR1 (P11362 22-822, species assumed): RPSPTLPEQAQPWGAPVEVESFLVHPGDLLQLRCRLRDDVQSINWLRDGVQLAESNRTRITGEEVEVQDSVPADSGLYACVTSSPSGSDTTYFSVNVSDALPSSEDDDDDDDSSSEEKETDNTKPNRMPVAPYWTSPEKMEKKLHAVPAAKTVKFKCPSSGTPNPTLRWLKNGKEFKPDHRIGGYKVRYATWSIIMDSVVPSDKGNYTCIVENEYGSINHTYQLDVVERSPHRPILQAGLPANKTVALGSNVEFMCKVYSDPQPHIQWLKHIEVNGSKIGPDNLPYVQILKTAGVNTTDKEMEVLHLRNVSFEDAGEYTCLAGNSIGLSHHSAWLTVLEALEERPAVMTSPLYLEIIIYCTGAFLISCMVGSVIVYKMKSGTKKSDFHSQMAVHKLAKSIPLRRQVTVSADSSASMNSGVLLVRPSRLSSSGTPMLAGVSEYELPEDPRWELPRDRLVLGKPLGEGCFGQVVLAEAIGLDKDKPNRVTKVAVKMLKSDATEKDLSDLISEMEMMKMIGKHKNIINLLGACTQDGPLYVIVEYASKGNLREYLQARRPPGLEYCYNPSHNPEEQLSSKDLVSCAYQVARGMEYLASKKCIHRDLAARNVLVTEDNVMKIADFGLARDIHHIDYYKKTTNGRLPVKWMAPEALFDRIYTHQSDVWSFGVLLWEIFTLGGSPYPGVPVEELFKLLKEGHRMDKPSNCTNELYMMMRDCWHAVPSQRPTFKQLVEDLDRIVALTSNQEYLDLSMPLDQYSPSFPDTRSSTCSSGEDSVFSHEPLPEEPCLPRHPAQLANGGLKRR

T1 sequence (P00533 669-1210 limits assumed, one chain of several): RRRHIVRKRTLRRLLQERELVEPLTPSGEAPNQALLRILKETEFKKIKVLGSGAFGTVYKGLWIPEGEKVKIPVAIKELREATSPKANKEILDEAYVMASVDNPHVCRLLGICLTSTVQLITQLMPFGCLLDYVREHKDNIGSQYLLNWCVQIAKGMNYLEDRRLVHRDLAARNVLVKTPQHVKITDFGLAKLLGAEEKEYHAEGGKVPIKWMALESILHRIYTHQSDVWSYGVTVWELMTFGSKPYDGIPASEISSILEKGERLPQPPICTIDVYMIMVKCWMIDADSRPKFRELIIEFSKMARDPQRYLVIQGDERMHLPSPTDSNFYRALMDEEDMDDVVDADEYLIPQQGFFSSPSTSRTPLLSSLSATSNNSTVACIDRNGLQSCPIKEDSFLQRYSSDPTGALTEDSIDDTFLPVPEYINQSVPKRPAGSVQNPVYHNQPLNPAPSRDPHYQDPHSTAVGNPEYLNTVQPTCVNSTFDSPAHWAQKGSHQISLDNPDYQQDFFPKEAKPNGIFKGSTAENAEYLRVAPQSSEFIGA

## O=C1c2ccccc2C(=O)C2SC(Nc3ccc(Cl)cc3)=NC12 (centres unmarked) [4524-E7, 2-((4-chlorophenyl)amino)naphtho[2,3-d]thiazole-4,9(3aH,9aH)-dione]
IR-EGFR
  tyrosine phosphorylation of chimaeric receptor: not phosphorylated
FGFR1
  inhibition of FGFR1: slightly inhibited
